How the values were obtained:
[1] = system: in vivo ischemic rat heart model; experiment: Cardioprotective effect on in vivo ischemic rat heart model (coronary occlusion/reperfusion, infarct size); settings: 0.1 mg/kg intravenous, 45 min occlusion, 90 min reperfusion
Description: The cardioprotective effect of the benzothiophen-2-carbonylguanidine derivatives according to the present invention in in vivo ischemic hearts was judged with regard to their antischemic effects (myocardiac infarction reduction) on rats as follows.
Each male rat (300˜450 g, the Korea Research Institute of Chemical Technology, Experimental Animal Lab) was anesthetized by intraperitoneal injection with sodium pentobarbital at a dose of 75 mg/kg. Tracheotomy was performed and a tube was inserted into the trachea for subsequent artificial ventilation with a stroke volume of 10 ml/kg and a respiratory rate of 60 breaths/min. The femoral vein and the femoral artery were cannulated for the administration of the compounds and for the measurement of blood pressures, respectively. Meanwhile, the body temperature of the rats, an important factor to influence experimental results in the ischemic myocardiac injury model, was maintained constant at 37° C. using a homeothermic blanket control unit, with a body temperature-monitoring probe inserted into the rectum. Subsequently, rats were continuously measured for mean arterial blood pressure and heart rate HR throughout the experimental time period using a Statham P23XL pressure transducer (Grass Ins., Mass., USA) and an ECG/RATE Coupler (Hugo Sachs Electronic, Germany), respectively, with all continuous changes thereof recorded by Graphtec Linearcorder WR 3310 (Hugo Sachs Electronic).
The left coronary artery was occluded according to Selye H.'s method. In detail, after the chest of each rat was partially opened by left thoracotomy, the middle finger of the left hand was pressed against the right side of the chest of the rat to thrust out the heart which was then slightly fixed with the forefinger and the thumb of the same hand. Then, immediately after the left anterior descending coronary artery (LAD) was sutured with a 5-0 silk ligature, the heart was repositioned back in the thoracic cavity with both ends of the suture positioned outside. The ends of the suture were threaded through a PE tube (PE100, 2.5 cm) and allowed to stand for 20 min for stabilization. Through the cannula inserted into the femoral vein, a vehicle or the compounds of the invention were administered and 30 min was needed for sufficient effects of the administered compounds. Cariporide was used as a control. The ends of the suture threaded through the PE tube were pulled taut with hemostatic forceps to vertically press the PE tube against the coronary artery. After occlusion for 45 min, the hemostatic forceps were removed and reperfusion was conducted for 90 min.
The coronary artery was reoccluded in the same manner as described above, followed by the intravenous injection of 2 ml of 1% Evans blue. The intravenous injection of an excess of pentobarbital killed the rats, from which the hearts were then excised. The left ventricle was removed alone from the isolated heart and transected from the cardiac apex into 5 or 6 slices. Each slice was weighed. The image of each of the heart slices was captured using a Hi-scope, a compact vision system, and analyzed for blue-stained normal areas and non-stained areas with an image analyzing program (Image Pro Plus). In each slice, the area at risk (AAR) was calculated by multiplying the ratio of the non-stained area to the total area of the slice with the weight of the slice. Sum of the individual area at risk (AAR) for each slice was divided by the total weight of the left ventricle to obtain AAR (%) according to the following mathmatical formula 1.
Separately, the heat slices were incubated in 1%. 2,3,5-triphenyltetrazolium chloride (TTC) phosphate buffer (pH 7.4), 37° C., for 15 min and fixed in 10% formalin for 20˜24 hours. In the normal area of the tissue, 2,3,5-triphenyltetrazolium chloride was reduced by the myocardial dehydrogenase in the presence of the cofactor NADH to form formazan dye, which appeared as a brick-red color. […]

[2] = system: isolated ischemic rat heart; experiment: Cardioprotective effect in isolated ischemic rat heart model (Langendorff); settings: 10 μM, 30 min global ischemia, 30 min reperfusion
Description: Male rats (300 450 g, the Korea Research Institute of Chemical Technology, Experimental Animal Lab) were anesthetized by intraperitoneal injection with sodium pentobarbital at a dose of 100 mg/kg and were intravenously administered with heparine at a dose of 1000 U/kg, followed by the excision of the heart. In detail, a tracheotomy was performed and a tracheal cannula (PE 240) was inserted into the trachea for subsequent artificial ventilation with room air using a rodent ventilator. […] A catheter tip manometer connected to a latex balloon filled with a mixture of ethanol and distilled water (1:1 v/v) was inserted via an incision in the left atrium into the left ventricle, and the intraventricular pressure thereof transmitted to the latex balloon was measured isovolumetrically with a transducer and recorded on a recording system (Linearcorder mark 8 WR 3500) with the aid of an amplifier (Plugsys bridge amplifier). After stabilizing the heart for 15 min, the balloon volume was adjusted to create a left ventricular end-diastolic pressure (LVEDP) of 5 mmHg during the initial baseline period. The volume of the balloon was maintained until the end of the experiment. Baseline heart contraction function, spontaneous heart rate (HR) and coronary flow (CF) were determined from the left ventricular contraction interval. The left ventricular developed pressure (LVDP), which is regarded as an index of contractile function of the isolated heart, was calculated by subtracting left ventricular end-diastolic pressure (LVEDP) from left ventricular peak systolic pressure (LVSP). In contrast to the heart in the body, the Langendorff heart cannot be measured for cardiac output and thus, RPP (rate-pressure product), which is an important indirect indicator for cardiac performance, was calculated by multiplying heart rate (HR) by LVDP. Throughout the experiment, the temperature of the heart was maintained constant by […] in a 37° C. physiological solution to which 95% O2/5% CO2 was continuously supplied. The heart thus stabilized was perfursed for 10 min with a solution of the compounds of the invention or control drugs in DMSO (dimethylsulfoxide) diluted with HBS (final DMSO conc. 0.04%), or with the solvent only (a negative control; 0.04% DMSO) and then measured again for contractile function, heart rate (HR) and coronary flow (CF). The supply of perfusates was completely stopped for 30 min in order to induce global ischemia in the heart, followed by reperfusion for 30 min. The indices (LVDP, HR, LVEDP, and CF) were measured again. After the reperfusion, the total level of lactate dehydrogenase (LDH) in the reperfusates was measured using a kit and taken as an index of ischemic myocardial injury. A negative control group was treated with the solvent only while cariporide was used as a positive control.

[3] = target: T1, Human NHE-1 (Homo sapiens, UniProt P19634); experiment: Inhibitory effect on NHE-1 in PS120/NHE-1 cells (recovery from intracellular acidosis, BCECF fluorescence); type: cell-based; settings: human NHE-1 expressed PS120 cells; concentration at which recovery from intracellular acidosis was 50% inhibited
T1 construct: expressed in transfected cells; host or cells: CCL39-derived PS120 cells (PS120/NHE-1)
T1 sequence (P19634 whole entry): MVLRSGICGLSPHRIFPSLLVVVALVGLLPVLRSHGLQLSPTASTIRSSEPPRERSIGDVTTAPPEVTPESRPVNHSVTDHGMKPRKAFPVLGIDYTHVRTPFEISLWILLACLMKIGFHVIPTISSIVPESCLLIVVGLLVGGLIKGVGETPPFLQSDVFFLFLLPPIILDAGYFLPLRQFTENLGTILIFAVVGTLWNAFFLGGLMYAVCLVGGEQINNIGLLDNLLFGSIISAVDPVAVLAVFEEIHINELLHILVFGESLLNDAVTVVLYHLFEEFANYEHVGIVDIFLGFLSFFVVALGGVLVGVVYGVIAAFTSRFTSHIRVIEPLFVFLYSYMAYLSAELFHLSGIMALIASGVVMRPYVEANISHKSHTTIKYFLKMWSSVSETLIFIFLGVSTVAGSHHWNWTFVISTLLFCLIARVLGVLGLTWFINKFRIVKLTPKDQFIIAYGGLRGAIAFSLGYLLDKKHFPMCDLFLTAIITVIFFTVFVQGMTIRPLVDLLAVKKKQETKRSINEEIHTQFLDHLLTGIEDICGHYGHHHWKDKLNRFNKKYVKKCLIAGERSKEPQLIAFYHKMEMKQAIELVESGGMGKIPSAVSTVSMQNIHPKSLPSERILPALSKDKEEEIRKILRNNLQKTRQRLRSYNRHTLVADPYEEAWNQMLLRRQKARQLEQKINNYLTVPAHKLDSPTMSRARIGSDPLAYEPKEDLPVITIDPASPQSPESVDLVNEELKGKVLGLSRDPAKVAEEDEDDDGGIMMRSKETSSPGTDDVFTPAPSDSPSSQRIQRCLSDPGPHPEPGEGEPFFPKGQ
Description: The benzothiophen-2-carbonylguanidine derivatives of the present invention were examined for NHE-1 inhibitory effect in cells according to the following procedure.
Human NHE-1 was expressed in CCL39-derived PS120 cells. These human NHE-1 expressed cells were cultured in DMEM (Dulbecco's modified Eagle's medium) supplemented with 10% fetal bovine serum, 1% penicillin/streptomycin (100× solution), 1% L-glutamine (200 mM aqueous solution). The PS120/NHE-1 cells grown in 100 mm dishes were treated with trypsin at 80-90% confluency, followed by washing with PBS (phosphate buffer saline) once, and then once with an Na-free buffer (138.2 mM Choline chloride, 4.9 mM KCl, […]. 2H2O, 1.2 mM MgSO4.7H2O, 1.2 mM KH2PO4, 15 mM D-glucose, 20 mM HEPES, at pH 7.4). After centrifugation, the pellet was suspended in an Na-free buffer containing 20 mM NH4Cl and 10 μM BCECF-AM [2′,7′-bis(2-carboxyethyl)-5,6-carboxy-fluorescein acetoxymethyl ester] and incubated at 37° C. for 30 min in a CO2 incubator. After being harvested by centrifugation, the PS120/NHE-1 cells were washed once with an Na-free buffer to remove both NH4Cl and extracellular BCECF-AM, suspended at a density of 2.5×10^4 cells/10 μl and stored at 4° C. in a dark room until reuse. In each well of 96-well microplates, 180 μl of HBS (137 mM NaCl, 4.9 mM KCl, 1.5 mM CaCl2. 2H2O, 1.2 mM MgSO4.7H2O, 1.2 mM KH2PO4, 15 mM D-glucose, 20 mM HEPES, at pH 7.4) and 10 μl of DMSO or 10 μl of a solution of the compound (0.03˜10 μM) of the present invention in DMSO were placed and well mixed, after which 10 μl aliquots of the intracellular acidosis-induced PS120/NHE-1 cells were added thereto. 4 min after the cell addition, fluorescence (excitation: 485/444 nm, emission: 535 nm) was measured in the GEMINI-XS Microplate Spectrofluorometer (Molecular Devices). The fluorescence measured was converted into pH values using a high-K^+/nigericin technique. The cells in which intracellular acidosis was induced with NH4Cl prepulses, were recovered to normal pH values through the operation of NHE-1. The inhibitory effect of the compound against NHE-1 was evaluated as concentrations at which the recovery from the intracellular acidosis to a normal state was 50% inhibited (IC50 values), with cariporide used as a control.

## CCc1cccc2sc(C(=O)N=C(N)N)cc12.CS(=O)(=O)O [Example 37, (4-Ethylbenzothiophene-2-Carbonyl)Guanidine Methanesulfonate]
[1]
  Myocardiac infarction rate (IS/AAR, %): 51.6%
[2]
  LDH (free LDH level upon reperfusion): 7.1 u/g
  LVEDP (left ventricular end-diastolic pressure): 37.7 mmHg
  RPP (rate-pressure product (LVDP × HR) % relative to the value before ischemia induction): 43.4%
[3]
  IC50: 270 nM

## CS(=O)(=O)O.NC(N)=NC(=O)c1cc2c(C(F)(F)F)cccc2s1 [Example 43, (4-Trifluoromethylbenzothiophene-2-Carbonyl)Guanidine Methanesulfonate]
[1]
  Myocardiac infarction rate (IS/AAR, %): 44.8%
[2]
  LDH (free LDH level upon reperfusion): 5.2 u/g
  LVEDP (left ventricular end-diastolic pressure): 5.8 mmHg
  RPP (rate-pressure product (LVDP × HR) % relative to the value before ischemia induction): 80.6%
[3]
  IC50: 400 nM
